Measured values: PMC8500670, “A selective WDR5 degrader inhibits acute myeloid leukemia in patient-derived mouse models” (Science translational medicine, 2021)

Key:
Assay in all cases: biochemical
Design in all cases: protein methyltransferase inhibition panel, single concentration, duplicate
[1] = target: T1, PRMT4 (Homo sapiens, UniProt Q86X55)
T1 construct: gene CARM1
T1 sequence (Q86X55 1-608): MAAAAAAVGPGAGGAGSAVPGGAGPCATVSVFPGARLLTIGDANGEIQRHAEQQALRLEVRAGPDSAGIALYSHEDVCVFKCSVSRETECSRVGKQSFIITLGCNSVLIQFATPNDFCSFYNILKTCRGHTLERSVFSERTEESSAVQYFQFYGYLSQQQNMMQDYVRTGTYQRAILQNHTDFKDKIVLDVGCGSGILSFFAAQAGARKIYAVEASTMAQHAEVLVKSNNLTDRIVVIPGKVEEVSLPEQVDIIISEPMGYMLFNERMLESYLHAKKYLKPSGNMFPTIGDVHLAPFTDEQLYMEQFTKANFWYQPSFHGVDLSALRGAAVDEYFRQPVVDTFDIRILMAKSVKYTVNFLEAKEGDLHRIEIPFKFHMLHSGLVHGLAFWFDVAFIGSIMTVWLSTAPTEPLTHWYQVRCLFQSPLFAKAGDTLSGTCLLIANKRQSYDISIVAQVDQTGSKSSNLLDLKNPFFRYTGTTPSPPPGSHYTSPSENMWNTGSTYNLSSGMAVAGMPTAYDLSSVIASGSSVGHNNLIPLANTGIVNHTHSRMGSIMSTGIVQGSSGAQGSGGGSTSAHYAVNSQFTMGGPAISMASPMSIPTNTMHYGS
Experimental: (§1) We next assessed selectivity of MS67 against 22 protein methyltransferases (table S2) and a broad panel of common drug targets including 45 kinases (table S3) and 44 G protein–coupled receptors (GPCR), ion channels, and transporters (table S4). […] We subsequently determined that MS67 had moderate binding affinity (Ki = 1.0 ± 0.8 μM) to Sigma 2 receptor (fig. S10).

[2] = target: T2, GLP (Homo sapiens, UniProt Q9H9B1)
T2 construct: gene EHMT1
T2 sequence (Q9H9B1 1-1298): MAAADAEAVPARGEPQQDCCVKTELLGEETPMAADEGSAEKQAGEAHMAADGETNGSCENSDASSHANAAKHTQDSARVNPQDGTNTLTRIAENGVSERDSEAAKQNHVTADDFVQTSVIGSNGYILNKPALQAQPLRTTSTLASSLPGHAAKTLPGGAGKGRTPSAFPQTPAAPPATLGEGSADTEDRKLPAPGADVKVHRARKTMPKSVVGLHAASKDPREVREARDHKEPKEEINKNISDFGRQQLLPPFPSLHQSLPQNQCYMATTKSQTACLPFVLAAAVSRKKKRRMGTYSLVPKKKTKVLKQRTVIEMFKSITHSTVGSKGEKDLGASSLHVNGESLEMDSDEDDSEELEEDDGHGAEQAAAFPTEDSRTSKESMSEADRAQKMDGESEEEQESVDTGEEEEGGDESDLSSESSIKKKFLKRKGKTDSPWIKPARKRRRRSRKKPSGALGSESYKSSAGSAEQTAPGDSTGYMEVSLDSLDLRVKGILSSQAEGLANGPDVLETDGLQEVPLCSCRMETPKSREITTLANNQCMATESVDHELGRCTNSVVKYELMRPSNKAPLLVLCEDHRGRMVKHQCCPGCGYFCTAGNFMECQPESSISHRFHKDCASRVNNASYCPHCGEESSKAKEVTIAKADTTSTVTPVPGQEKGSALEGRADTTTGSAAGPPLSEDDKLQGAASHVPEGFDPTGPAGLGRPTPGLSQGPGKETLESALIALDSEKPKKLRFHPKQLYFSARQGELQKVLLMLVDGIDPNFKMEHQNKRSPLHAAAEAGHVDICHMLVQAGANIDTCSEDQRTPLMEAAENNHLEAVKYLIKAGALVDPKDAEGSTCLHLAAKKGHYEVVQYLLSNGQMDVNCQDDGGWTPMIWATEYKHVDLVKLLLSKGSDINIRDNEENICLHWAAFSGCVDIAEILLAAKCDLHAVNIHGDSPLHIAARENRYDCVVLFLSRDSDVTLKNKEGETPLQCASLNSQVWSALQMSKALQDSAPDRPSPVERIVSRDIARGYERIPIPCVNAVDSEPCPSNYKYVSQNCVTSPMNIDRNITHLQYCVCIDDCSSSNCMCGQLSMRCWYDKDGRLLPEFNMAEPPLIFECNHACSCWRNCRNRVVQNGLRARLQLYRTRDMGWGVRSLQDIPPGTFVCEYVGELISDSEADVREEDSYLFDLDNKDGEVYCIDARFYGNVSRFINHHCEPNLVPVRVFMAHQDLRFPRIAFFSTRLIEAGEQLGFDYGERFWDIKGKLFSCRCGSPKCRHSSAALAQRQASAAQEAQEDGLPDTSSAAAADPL
Experimental: as §1

[3] = target: SETD2 (Homo sapiens, UniProt Q9BYW2)
Experimental: as §1

Measured: inhibition at 10 µM

Chain of SETD2 (Q9BYW2 whole entry): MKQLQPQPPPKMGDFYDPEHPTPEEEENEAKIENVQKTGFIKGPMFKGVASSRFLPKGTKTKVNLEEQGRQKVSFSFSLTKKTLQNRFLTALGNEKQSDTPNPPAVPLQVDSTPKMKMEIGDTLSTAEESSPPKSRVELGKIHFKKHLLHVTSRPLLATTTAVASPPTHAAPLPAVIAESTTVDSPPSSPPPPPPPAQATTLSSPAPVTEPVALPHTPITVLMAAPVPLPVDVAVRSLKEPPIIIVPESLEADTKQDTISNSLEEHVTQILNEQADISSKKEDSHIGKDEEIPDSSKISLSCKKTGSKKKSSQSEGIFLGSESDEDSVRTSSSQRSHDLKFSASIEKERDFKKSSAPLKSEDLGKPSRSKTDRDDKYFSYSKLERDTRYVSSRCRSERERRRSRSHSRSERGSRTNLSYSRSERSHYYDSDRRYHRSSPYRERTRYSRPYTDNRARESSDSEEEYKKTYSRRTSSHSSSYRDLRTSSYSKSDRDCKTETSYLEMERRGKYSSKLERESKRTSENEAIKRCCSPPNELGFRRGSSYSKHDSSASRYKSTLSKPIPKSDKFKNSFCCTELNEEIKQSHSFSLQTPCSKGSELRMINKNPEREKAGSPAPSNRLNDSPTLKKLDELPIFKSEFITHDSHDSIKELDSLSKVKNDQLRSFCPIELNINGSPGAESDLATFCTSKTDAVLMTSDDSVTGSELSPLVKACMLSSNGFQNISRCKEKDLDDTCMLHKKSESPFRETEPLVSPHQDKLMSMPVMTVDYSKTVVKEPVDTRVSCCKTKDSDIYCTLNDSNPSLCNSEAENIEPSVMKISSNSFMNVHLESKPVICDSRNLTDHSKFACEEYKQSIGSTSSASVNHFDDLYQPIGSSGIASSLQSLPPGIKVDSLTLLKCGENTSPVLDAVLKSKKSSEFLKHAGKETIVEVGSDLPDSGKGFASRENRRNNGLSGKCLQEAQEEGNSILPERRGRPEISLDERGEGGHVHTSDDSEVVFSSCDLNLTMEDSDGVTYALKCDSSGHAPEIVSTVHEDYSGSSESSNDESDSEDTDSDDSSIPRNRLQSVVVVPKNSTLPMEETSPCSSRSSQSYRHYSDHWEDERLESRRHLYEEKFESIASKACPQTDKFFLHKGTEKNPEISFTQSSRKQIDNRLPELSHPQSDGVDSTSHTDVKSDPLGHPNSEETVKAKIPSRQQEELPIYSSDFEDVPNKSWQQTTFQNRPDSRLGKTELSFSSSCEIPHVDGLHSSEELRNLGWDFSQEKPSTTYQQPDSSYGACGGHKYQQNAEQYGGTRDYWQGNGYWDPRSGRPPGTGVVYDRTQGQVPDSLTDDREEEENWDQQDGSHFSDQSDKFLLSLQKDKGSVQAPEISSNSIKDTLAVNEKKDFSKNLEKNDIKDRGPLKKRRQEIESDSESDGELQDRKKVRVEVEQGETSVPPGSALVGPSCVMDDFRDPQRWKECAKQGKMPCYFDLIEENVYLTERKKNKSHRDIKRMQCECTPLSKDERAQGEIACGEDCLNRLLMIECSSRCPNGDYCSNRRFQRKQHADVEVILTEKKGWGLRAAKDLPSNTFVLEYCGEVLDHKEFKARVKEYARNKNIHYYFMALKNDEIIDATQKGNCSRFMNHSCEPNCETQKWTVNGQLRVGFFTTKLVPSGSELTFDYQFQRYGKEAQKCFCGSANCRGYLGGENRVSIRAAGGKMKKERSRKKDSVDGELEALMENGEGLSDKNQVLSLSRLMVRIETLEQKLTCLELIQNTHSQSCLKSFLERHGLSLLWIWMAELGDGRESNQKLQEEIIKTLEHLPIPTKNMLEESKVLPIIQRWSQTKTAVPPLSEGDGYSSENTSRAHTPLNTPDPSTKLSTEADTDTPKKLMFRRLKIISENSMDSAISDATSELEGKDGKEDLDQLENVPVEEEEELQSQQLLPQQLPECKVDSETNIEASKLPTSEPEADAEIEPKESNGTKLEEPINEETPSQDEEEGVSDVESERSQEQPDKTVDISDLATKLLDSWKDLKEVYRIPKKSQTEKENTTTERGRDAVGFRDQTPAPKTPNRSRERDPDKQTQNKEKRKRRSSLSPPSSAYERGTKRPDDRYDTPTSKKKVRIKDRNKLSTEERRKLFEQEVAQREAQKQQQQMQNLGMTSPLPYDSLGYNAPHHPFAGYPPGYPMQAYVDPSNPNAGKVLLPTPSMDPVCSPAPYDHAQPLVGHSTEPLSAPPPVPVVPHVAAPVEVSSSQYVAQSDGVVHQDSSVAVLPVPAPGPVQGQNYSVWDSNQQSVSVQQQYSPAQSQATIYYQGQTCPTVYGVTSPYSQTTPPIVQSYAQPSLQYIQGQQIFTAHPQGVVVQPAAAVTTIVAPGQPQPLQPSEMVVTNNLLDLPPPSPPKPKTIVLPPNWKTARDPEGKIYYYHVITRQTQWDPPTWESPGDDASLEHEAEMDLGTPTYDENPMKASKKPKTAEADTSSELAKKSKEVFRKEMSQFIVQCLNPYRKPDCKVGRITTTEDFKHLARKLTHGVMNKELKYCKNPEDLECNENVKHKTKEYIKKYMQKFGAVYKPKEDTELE

Cc1ncsc1-c1ccc([C@H](C)NC(=O)[C@@H]2C[C@@H](O)CN2C(=O)[C@@H](NC(=O)CNC(=O)c2ccc(F)c(-c3ccc(N4C[C@@H](C)N(C)[C@@H](C)C4)c(NC(=O)c4c[nH]c(=O)cc4C(F)(F)F)c3)c2)C(C)(C)C)cc1 [MS67]
< 10%: [1] | [2] | [3]
